For 13 compounds, IC50, ED50 and Ratio IC50 results are on record in ChEMBL document CHEMBL1143974, “Synthesis and cyclooxygenase inhibitory activities of linear 1-(methanesulfonylphenyl or benzenesulfonamido)-2-(pyridyl)acetylene regioisomers” (Bioorg Med Chem, 2008).

In general, IC50 refers to the midpoint of a concentration-inhibition curve. A higher IC50 goes with weaker potency.

A value given as a limit tells only on which side of the number the result lay.

Experiment [1] deals with T1, Prostaglandin G/H synthase 1 (Ovis aries, UniProt P05979).
T1 sequence (P05979 whole entry): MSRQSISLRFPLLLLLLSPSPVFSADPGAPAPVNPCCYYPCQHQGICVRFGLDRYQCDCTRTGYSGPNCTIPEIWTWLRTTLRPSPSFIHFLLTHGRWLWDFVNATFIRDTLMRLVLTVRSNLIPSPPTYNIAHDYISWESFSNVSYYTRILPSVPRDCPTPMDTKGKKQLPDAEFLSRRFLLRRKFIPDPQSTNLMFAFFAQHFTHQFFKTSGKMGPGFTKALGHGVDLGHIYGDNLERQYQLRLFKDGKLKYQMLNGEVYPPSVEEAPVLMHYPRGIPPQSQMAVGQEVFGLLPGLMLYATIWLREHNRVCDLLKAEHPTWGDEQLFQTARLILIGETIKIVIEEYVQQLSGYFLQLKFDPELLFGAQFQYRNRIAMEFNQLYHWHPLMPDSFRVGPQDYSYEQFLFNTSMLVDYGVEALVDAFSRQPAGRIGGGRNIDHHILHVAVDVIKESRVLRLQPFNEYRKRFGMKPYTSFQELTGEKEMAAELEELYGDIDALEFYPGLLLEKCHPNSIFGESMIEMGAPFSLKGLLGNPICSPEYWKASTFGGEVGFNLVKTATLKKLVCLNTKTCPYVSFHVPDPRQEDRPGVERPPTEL
The experiment is described as follows: Inhibition of ovine COX1 by enzyme immuno assay.

Experiment [2] relates to Rattus norvegicus. The experiment is described as follows: Antiinflammatory activity against carrageenan-induced foot paw edema in orally dosed rat after 3 hrs. The format is functional. The conditions noted are these: po, read-out: ID50 (the source's name). Background: Carrageenan injected into the paw causes an acute inflammation.
The species named for experiment [3] is Ovis aries. The experiment is described as follows: Selectivity index, ratio of IC50 for ovine COX1 to IC50 for ovine COX2.

Consider `CS(=O)(=O)c1ccc(C#Cc2ccccn2)cc1`, for which 31.7 µM corresponded to half-maximal inhibition in experiment [1] (IC50).

In turn, `CS(=O)(=O)c1ccccc1C#Cc1ccccn1` showed an IC50 in experiment [1] of 0.28 µM.

With `CS(=O)(=O)c1ccc(C#Cc2cccnc2)cc1`, the ED50 in experiment [2] was 59.9 mg/kg. Moreover, it took 3.2 µM to reach half-maximal inhibition in experiment [1] (IC50).

On to `CS(=O)(=O)c1cccc(C#Cc2ccccn2)c1`, for which, in experiment [2], the ED50 worked out at 76.4 mg/kg. Besides, the IC50 in experiment [1] was found to be 31.6 µM.

On to `CS(=O)(=O)c1cccc(C#Cc2cccnc2)c1`, for which, in experiment [1], the IC50 is more than 100 µM. Further, the Ratio IC50 in experiment [3] is more than 3.1.

In experiment [1], `CS(=O)(=O)c1cccc(C#Cc2ccncc2)c1` returned an IC50 of more than 100 µM. Besides, the Ratio IC50 in experiment [3] was more than 312.

`Cc1cccnc1C#Cc1ccc(S(N)(=O)=O)cc1`: in experiment [2], the ED50 was 76.6 mg/kg. Moreover, in experiment [1], half-maximal inhibition (IC50) was put at 1.3 µM.

`Cc1cccnc1C#Cc1ccccc1S(C)(=O)=O`: in experiment [1], 2 µM corresponded to half-maximal inhibition (IC50).

In turn, `NS(=O)(=O)c1ccc(C#Cc2ccccn2)cc1` came in with a half-maximal inhibitory concentration (IC50) in experiment [1] of 9.3 µM.

As for `CC(=O)Oc1ccccc1C(=O)O` [ASPIRIN], the ED50 in experiment [2] worked out at 129 mg/kg.

In experiment [1], `CS(=O)(=O)c1ccccc1C#Cc1ccncc1` showed an IC50 of 0.26 µM.

For `NS(=O)(=O)c1ccc(C#Cc2ccncc2)cc1`, in experiment [1], the IC50 came to 3.9 µM.

`Cc1cccnc1C#Cc1ccc(S(C)(=O)=O)cc1` came in with a half-maximal inhibitory concentration (IC50) in experiment [1] of more than 100 µM.
